These compounds were tested against T1, human recombinant adrenergic α1D receptor (Homo sapiens, UniProt P25100) (assay: Radioligand binding, adrenergic α1D receptor ([3H]Prazosin)). Details: 0.1 μM compound; HEK-293 cells; 0.6 nM [3H]Prazosin; read-out: Percentage inhibition of ligand binding, Adrenergic α1D.
T1 construct: expressed in transfected cells; host or cells: HEK-293
T1 sequence (P25100 1-572): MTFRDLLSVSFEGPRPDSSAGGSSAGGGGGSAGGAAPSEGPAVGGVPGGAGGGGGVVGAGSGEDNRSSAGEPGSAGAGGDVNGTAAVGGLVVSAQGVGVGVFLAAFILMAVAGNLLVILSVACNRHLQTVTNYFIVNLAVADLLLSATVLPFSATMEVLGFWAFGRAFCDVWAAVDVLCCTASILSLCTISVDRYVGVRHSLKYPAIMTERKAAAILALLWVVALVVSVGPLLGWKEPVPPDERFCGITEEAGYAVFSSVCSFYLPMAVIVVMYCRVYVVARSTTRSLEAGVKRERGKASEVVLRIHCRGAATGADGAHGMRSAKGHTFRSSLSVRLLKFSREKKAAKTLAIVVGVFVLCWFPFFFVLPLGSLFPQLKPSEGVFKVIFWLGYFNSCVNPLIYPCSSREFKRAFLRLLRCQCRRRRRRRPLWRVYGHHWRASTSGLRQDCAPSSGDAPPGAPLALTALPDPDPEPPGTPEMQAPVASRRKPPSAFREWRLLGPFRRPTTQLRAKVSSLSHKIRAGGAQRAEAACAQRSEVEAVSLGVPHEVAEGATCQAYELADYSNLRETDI
Protocol: Compounds were incubated with 0.6 nM [3H]Prazosin for 60 min at 25° C. Non-specific binding was estimated in the presence of 10 μM phentolamine. Receptor proteins were filtered and washed, the filters were then counted to determine [3H]Prazosin specifically bound. Compounds were screened at 1 μM or lower, using 1% DMSO as vehicle. Biochemical assay results are presented as the percent inhibition of specific binding in Table 2.
For `Cc1ccc2c(c1)c1c(n2-c2cscc2-c2ccc3c(ccn3C)c2)CCN(C)C1` [Compound 33], the inhibition at 0.1 µM was 69%. `COc1ccc(-c2cscc2-n2c3c(c4cc(C)ccc42)CN(C)CC3)cc1` [Compound 37] showed an inhibition at 0.1 µM of 79%. Work on `Cc1csc(-c2cscc2-n2c3c(c4cc(C)ccc42)CN(C)CC3)c1` [Compound 50] yielded an inhibition at 0.1 µM of 51%. Compound `Cc1ccc2c(c1)c1c(n2-c2cscc2-c2ccc3cnccc3c2)CCN(C)C1` [Compound No. 68] has an inhibition at 0.1 µM of 68%. `Cc1ccc2c(c1)c1c(n2-c2cscc2-c2ccc(S(C)(=O)=O)cc2)CCN(C)C1` [Compound No. 76] gave an inhibition at 0.1 µM of 73%. For `Cc1ccc2c(c1)c1c(n2-c2cscc2-c2ccc(C)s2)CCN(C)C1` [Compound No. 79], the inhibition at 0.1 µM was 53%. In the case of `Cc1ccc2c(c1)c1c(n2-c2ccccc2-c2ccc3c(ccn3C)c2)CCN(C)C1` [Compound No. 85, 2,8-dimethyl-5-(2-(1-methyl-1H-indol-5-yl)phenyl)-2,3,4,5-tetrahydro-1H-pyrido[4,3-b]indole], the inhibition at 0.1 µM is reported as 62%. `Cc1ccc2c(c1)c1c(n2-c2ccccc2-c2cccn2C)CCN(C)C1` [Compound No. 100, 2,8-dimethyl-5-(2-(1-methyl-1H-pyrrol-2-yl)phenyl)-2,3,4,5-tetrahydro-1H-pyrido[4,3-b]indole] showed an inhibition at 0.1 µM of 64%.
